2 compounds from patent US20240173255A1, “Polymeric Micelle Coated with Chain-Like Poorly Soluble Drug, Preparation Method and Application” (Hangzhou Hanjing Biotechnology Co., Ltd, priority 2021, published 2024) can be followed below.

Data set [1] in a line: Bioavailability test (pharmacokinetics) in ICR mice. The format is in vivo, mouse. The following applies: 10 mg/kg tail vein injection. The protocol: 36 Institute of Cancer Research (ICR) mice weighing about 20 g were randomly divided into 2 groups, with 18 mice in each group. The mice all were separately administered using a CPD14 injection without Soluplus entrapment prepared according to Example 2 and the polymeric micelle prepared according to Example 2 in the same concentration, at a dose of 10 mg/kg by tail vein injection. Blood was collected at 0.003 h, 0.17 h, 0.5 h, 1 h, 2 h, 4 h, 8 h, 12 h, and 24 h after administration, and a plasma concentration of CPD14 was measured after treating the whole blood or plasma.

Data set [2] deals with H22 mouse liver cancer subcutaneous tumor transplants. As to the kind of experiment: Treatment test on subcutaneous tumor transplants in mice. The format is in vivo. The conditions noted are these: ICR mice, 20 mg/kg tail vein once a day for 10 days, tumors removed on 11th day. How it is done:
30 ICR mice weighing about 20 g were randomly divided into 3 groups, with 10 mice in each group. Liver cancer H22 cells were inoculated subcutaneously into the right armpit of mice. The next day, mice in Group 1 were injected with CPD14 injection without Soluplus prepared according to Example 2 at 20 mg/kg through the tail vein; mice in Group 2 waere injected with the polymeric micelle prepared according to Example 2 at 20 mg/kg through the tail vein; and mice in Group 3 were injected with the Soluplus blank micelle without drug at 20 mg/kg through the tail vein. The mice were injected once a day for 10 consecutive days, and the body weight of the mice was recorded and the status of the mice was observed every day. On the 11th day, the tumors of the mice were removed and measured.

Data set [3] has as its system mouse lung cancer A549 cells. As to the kind of experiment: Cancer cell inhibition test (EZMTT), A549. It counts as cell-based. The following applies: 5 days culture. The protocol: (§1) Taking the polymeric micelle prepared according to Example 2 as an example: the polymeric micelle was added to a 96-well plate, and 1,000 each of […] lung cancer A549 cells and mouse liver cancer H22 cells were added to each well.

A short description of data set [4]: Solubility of series A to E drugs in water and 10% Soluplus solution. The format is physicochemical. The source says:
The solubilities of the poorly soluble chain-like drugs of the series A to E according to the present disclosure in water and a 10% Soluplus solution are shown in Table 2.

The nature of data set [5]: Stability test in blood. The format is in vitro ADME. The following applies: 37° C., 2 h, FIG. 4. The protocol:
Taking the polymeric micelle prepared according to Example 2 as an example: in a 96-well plate, 10 μL of the polymeric micelle was added, then 190 μL of blood was added and shaken quickly to be uniform. At 37° C., a resulting mixture was taken out at preset time points of 5 min, 30 min, 60 min, and 120 min separately, and centrifuged at 3,000 rpm for 10 min to separate a plasma layer (upper layer) and a red blood cell layer (lower layer), each 100 μL. The plasma and red blood cell samples were treated using an organic solvent extraction method, and a concentration of CPD14 molecules in the samples was quantified and analyzed using HPLC (gradient method), while CPD14 molecules not entrapped by Soluplus were used as a control.

In data set [6] the test system is mouse liver cancer H22 cells. As to the kind of experiment: Cancer cell inhibition test (EZMTT), H22. The format is cell-based. The following applies: 5 days culture. How it is done:
as §1

The nature of data set [7]: Solubilities of ethaselen and compounds of Examples 1 to 5 in water, DMSO and Soluplus solutions. It counts as physicochemical. The source says: (§2) The hydrophobic constants and solubilities of the selenium-containing glutaminase inhibitors from series A to E prepared according to Examples 1 to 5 of the present disclosure as well as the commercially available ethaselen in water, dimethylsulfoxide (DMSO), and Soluplus solutions are shown in Table 4.

Data set [8] in a line: Hydrophobic constant. It counts as physicochemical.
Excerpt: as §2

SMILES strings stand for the structures. Values after ≈ are worked out from the molar mass of the structure shown. Where two headings read alike, the source gives them in different places.

For orientation: Cmax means the peak of the concentration-time curve. By Tmax is commonly meant the time at which the peak concentration occurs. Usually IC50 stands for the concentration that gives 50% inhibition. Read a high IC50 as a need for much substance. As for `COc1ccc2[se]n(CCCCCCn3[se]c4ccc(O)cc4c3=O)c(=O)c2c1` [CPD14], in data set [1], the “AUC0 h→24 h” value was 9600 ± 1100 ng·h/mL, the CL is 17 ± 2 mL/min/kg, the Cmax was 6600 ± 700 ng/mL and the T1/2β is 102 ± 0.6 min. Moreover, in data set [1], the Tmax was found to be 1.98 min. The “Tumor weight of H22 tumor transplant” value in data set [2] is on record as 2.15 ± 0.05 g. Besides, in data set [3], half-maximal inhibition (IC50) required 490 ± 70 nM. The “Solubility in 10% Soluplus” value in data set [4] (10% Soluplus solution) was above 1000 µg/mL. Besides, the Solubility in water in data set [4] (water) was 10 µg/mL (≈ 19.1 µM). Moreover, the “stability rate in blood” value in data set [5] is “significantly lower than that of the polymeric micelle”. In data set [6], the concentration for half-maximal inhibition (IC50) was 510 ± 40 nM.

A word on the Solubility: it is the concentration that dissolves in the medium under given conditions. As for `O=c1c2ccccc2[se]n1CCn1[se]c2ccccc2c1=O` [Ethaselen, ethaselen], the Solubility in data set [7] (DMSO, organic solvent or mixture, read-out: Solubility in DMSO) was 22000 µg/mL (≈ 52100 µM); in data set [7] (water, read-out: Solubility in Water), 2 to 3 µg/mL (≈ 4.74 to 7.11 µM). The same compound returned a Hydrophobic constant in data set [8] of 1.87.
